{
  "source": "patent US20100062961A1",
  "about": "“Good Foaming Creamy or Paste-Like Cleansers Comprising Floor Levels of Long Chain Lipids or Lipid Mimics” (CONOPCO, INC., D/B/A UNILEVER, priority 2008, published 2010)",
  "key": {"[1]": {"experiment": "Solubility of lipid in 5% surfactant solution, Method B absorbance at 500 nm", "format": "physicochemical", "conditions": "5% Miracare SLB, pH 6.0, Method B", "source_text": "Stock solutions of lipid in 5% surfactant solution were mixed in a beaker with an overhead mixer at a temperature above the melting point of the lipid for about an hour. The surfactant solution pH was adjusted to the desired range (usually 6 to 6.6) prior to addition of the lipid. Generally, the lipid concentrations in the stock solutions were at 1% to 2% by weight of solution. The stock solutions were allowed to cool to room temperature. These stock solutions were well above the solubility limit of the lipid as evidenced by considerable cloudiness. The stock solution was gently stirred to achieve a uniform suspension of the lipid insoluble matter, and then added to several small vials (approximately 20 ml capacity) in predetermined amounts. […] In some cases, we have determined solubility by analyzing a dilution series of samples using a UV-Vis 96 spectrophotometer (Spectra Max, Model 340pc). The samples of the dilution series were pipeted into a well plate reader and inserted into the spectrophotometer, which measured absorbance at a wavelength of 500 nm. The solubility limit was determined by extrapolating the absorbance readings to the baseline."}, "[2]": {"conditions": "typical anionic surfactant; cited from earlier work"}, "[3]": {"experiment": "Krafft point: lowest temperature at which cloudiness is observed in a 1% by weight surfactant solution", "format": "physicochemical", "conditions": "1% by weight solution; upper bound, solution observed clear at stated temperature", "description": "The Krafft temperature is the minimum temperature at which surfactants form micelles. […] Below the Krafft temperature, there is no value for the critical micelle concentration (CMC), i.e., surfactant micelles will not form. A portion of the surfactant exists as a precipitate and the mixture of surfactant and water will appear cloudy or have an obvious phase settled at the bottom of a sample below the Krafft temperature. We consider only surfactants or mixtures of surfactants with Krafft temperatures at or below 20° C., so it suffices to verify that the surfactant mixtures of interest are completely soluble at 20° C. We verified this for the commercial surfactant solutions of interest. In particular, we have verified that the Krafft temperature for mixtures of sodium lauryl-1-ether sulfate and cocoamidopropyl betaine, and for mixtures of the commercial blend known as Miracare SLB lies below 20° C.\nOur operational definition of Krafft point here is the lowest temperature at which cloudiness is observed in a 1% by weight solution of surfactant. The table indicates the upper bound on Krafft point, i.e., solution observed to be clear at stated temperature."}, "[4]": {"experiment": "Solubility of lipid in 5% surfactant solution, Method A visual observation", "format": "physicochemical", "description": "(room temperature). The solubility is a function of pH, and increases with increasing pH, but the long chain fatty acids and other lipids (e.g., cholesterol and related sterols and ceramides) and lipid mimics (e.g., saturated long chain alcohols) still have limited solubility in the surfactant solutions, especially in the pH range of interest, pH less than or equal to 8. Solubility can be determined by visual observation of a series of solutions that were allowed to equilibrate at room temperature for approximately 48 hours. We also determined solubility by absorbance of light at a particular wavelength, where we have used a UV-Vis 96 spectrophotometer well plate reader (Spectra Max, 340 pc Model) with the wavelength set at 500 nm. […] The surfactant solution pH was adjusted to the desired range (usually 6 to 6.6) prior to addition of the lipid. […] In some cases, we have determined solubility by analyzing a dilution series of samples using a UV-Vis 96 spectrophotometer (Spectra Max, Model 340pc). The samples of the dilution series were pipeted into a well plate reader and inserted into the spectrophotometer, which measured absorbance at a wavelength of 500 nm. The solubility limit was determined by extrapolating the absorbance readings to the baseline. These values are reported in Table 2 as determined by Method B."}},
  "data": [
    {"compound": "CC(C)CCC[C@@H](C)[C@H]1CC[C@H]2[C@@H]3CC=C4C[C@@H](O)CC[C@]4(C)[C@H]3CC[C@]12C", "note": "[Cholesterol]", "values": [
      {"measurement": "Solubility Limit", "setting": "[1]", "result": "~5 × 10^−3 weight fraction of total solution"}
    ]},
    {"compound": "CCCCCCCCCCCCOS(=O)(=O)[O-].[Na+]", "note": "[sodium dodecyl sulfate]", "values": [
      {"measurement": "Krafft temperature", "setting": "[2]", "result": 18.4, "unit": "°C"}
    ]},
    {"compound": "Sodium tridecethsulfate [Trideceth Sulfate (TDS)]", "values": [
      {"measurement": "Krafft T", "setting": "[3]", "result": "<15", "unit": "°C"}
    ]},
    {"compound": "CCCCCCCCCCCC(=O)O", "note": "[Lauric acid]", "values": [
      {"measurement": "solubility", "setting": "[4]; in 5 wt. % SLES1EO/CAPBet solution", "result": "approximately 0.08 wt. %"},
      {"measurement": "solubility as share of the surfactant weight", "setting": "[4]; in a 5 wt. % surfactant solution", "result": "approximately 16%"}
    ]}
  ]
}
